{"source": "patent US20240294571A1", "about": "“ANALGESIC AND ANESTHETIC PEPTIDES AND OTHER AGENTS” (The Research Foundation for The State University of New York, priority 2019, published 2024)", "key": {"rat hind paws": {"test_system": "rat hind paws", "test": "Hematoxylin & eosin staining, immune cells and gait in incisional pain model", "type": "in vivo", "method": "(A) Animals were treated as previously stated in the Methods section. However, no behavior was collected, instead, animals were sacrificed via transcardial perfusion, and tissue was collected for staining. (Top) Representative images depicting hematoxylin & eosin staining of rat hind paws in scrambled (n=2) and AP2 inhibitory peptide groups (n=2). Localized immune cells can be observed in the dermis in each condition. (Bottom) 24 hours following incision, there is a rapid increase in the number of immune cells. […] (B) Representative images of incision site in animals that received either the scrambled peptide (top) or AP2 inhibitory peptide (bottom). Black arrows highlight significant granuloma-like structures."}, "AP2 complex": {"target": "AP2 complex (Homo sapiens, UniProt O94973+P53680)", "sequence (O94973 1-621 limits assumed)": "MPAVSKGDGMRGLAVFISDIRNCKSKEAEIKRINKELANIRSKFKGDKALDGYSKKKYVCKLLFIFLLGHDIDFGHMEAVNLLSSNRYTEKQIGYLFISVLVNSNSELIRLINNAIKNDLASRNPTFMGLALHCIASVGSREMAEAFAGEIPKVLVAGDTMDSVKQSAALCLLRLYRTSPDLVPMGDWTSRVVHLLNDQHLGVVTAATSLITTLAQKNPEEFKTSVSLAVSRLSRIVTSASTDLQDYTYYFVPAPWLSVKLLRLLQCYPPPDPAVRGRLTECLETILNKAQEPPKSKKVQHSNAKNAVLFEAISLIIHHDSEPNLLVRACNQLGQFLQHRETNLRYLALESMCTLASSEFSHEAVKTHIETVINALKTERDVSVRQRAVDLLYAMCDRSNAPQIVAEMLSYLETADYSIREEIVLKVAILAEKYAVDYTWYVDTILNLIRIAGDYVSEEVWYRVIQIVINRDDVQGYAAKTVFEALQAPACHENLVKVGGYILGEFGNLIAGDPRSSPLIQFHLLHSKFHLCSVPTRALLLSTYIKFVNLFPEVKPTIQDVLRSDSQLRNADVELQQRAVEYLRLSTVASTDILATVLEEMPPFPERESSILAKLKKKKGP", "sequence (P53680 whole entry)": "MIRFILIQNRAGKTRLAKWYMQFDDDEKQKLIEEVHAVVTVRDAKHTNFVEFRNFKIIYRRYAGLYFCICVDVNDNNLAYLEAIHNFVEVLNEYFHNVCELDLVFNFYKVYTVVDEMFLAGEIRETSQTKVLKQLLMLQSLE", "sequence (P63010 1-591 partner limits assumed)": "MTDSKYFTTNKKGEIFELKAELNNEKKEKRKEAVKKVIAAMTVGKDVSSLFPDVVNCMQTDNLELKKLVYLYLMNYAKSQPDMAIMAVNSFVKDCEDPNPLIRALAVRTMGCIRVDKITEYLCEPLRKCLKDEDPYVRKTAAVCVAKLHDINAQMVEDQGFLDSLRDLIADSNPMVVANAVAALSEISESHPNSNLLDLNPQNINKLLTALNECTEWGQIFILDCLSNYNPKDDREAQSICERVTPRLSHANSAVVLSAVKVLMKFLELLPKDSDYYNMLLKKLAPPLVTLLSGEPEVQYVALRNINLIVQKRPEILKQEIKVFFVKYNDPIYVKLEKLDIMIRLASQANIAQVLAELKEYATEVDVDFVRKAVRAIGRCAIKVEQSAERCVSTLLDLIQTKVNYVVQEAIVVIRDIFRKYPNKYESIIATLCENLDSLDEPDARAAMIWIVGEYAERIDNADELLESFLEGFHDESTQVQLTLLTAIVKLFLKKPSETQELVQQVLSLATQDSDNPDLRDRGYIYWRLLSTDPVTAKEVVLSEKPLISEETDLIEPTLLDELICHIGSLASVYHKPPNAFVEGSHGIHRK", "sequence (Q96CW1 whole entry partner)": "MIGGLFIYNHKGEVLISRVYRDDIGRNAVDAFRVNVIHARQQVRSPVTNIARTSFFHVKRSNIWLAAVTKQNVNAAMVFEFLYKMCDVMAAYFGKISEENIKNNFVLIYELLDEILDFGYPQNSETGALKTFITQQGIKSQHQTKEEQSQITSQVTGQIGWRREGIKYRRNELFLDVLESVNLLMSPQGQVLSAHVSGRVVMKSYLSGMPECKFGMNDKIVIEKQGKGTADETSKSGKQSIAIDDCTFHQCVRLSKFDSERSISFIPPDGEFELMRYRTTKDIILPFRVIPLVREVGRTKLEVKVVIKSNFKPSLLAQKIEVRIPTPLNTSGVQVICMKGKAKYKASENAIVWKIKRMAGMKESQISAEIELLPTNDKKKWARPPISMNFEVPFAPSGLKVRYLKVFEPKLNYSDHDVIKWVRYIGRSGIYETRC", "conditions": "peptide sequence derived from human CD4 di-leucine motif; read-out: affinity for the AP2 complex; cited from earlier work"}, "C57BL/6 mice [1]": {"test_system": "C57BL/6 mice", "test": "CFA-induced inflammatory pain, thermal sensitivity (Hargreaves)", "type": "in vivo, mouse", "conditions": "for tau (τ), time constant of thermal sensitivity recovery: time in days", "method": "Freund's Complete Adjuvant Chronic Pain Model. C57BL/6 mice were anesthetized (induction: 3%, maintenance: 2%) and placed in a prone position. After the animals were under a surgical plane of anesthesia, denoted by a loss of reaction to both a tail and hind paw pinch, they received a 20 μL injection of Imject™ Freund's Complete Adjuvant (FCA; Thermo Fisher Scientific) and allowed to recover. Behavior testing resumed 24 hours post FCA injection. Each cohort of animals received FCA from previously unopened, vacuum sealed glass ampules to minimize variations between groups.\n(§1) Hargreaves Assay. Animals were placed on an enclosed elevated frosted glass platform (Ugo Baseline) and allowed 30 minutes for habituation. Once exploratory behavior ceased, an automatic Hargreaves apparatus was maneuvered (Ugo Baseline) underneath the hind paw(s) of the animals. Paw withdrawal latency was calculated as the average of four trials per hind limb. Each trial was followed by a 5-minute latency period to allow adequate recovery time between trials.\nComplete Freund's Adjuvant Induced Inflammatory Pain: Male and female C57BL/6 mice were randomized into experimental and control groups. In order to maintain consistency in regards to site of injection, mice were anesthetized and injected with a 32-gauge disposable syringe filled with 20 μL of Imject™ Complete Freund's Adjuvant (Thermo Fisher Scientific) into the plantar surface of the right hind paw and allowed to recover. Behavior testing resumed 24 hours post-CFA injection at which point the animals received a 20 μL intraplantar injection of 100 μM (3.154 μg total) lipidated peptidomimetic immediately after the conclusion of day 1 behavioral testing. In order to minimize experimental error between groups, each group of animals received CFA from previously unopened, vacuum-sealed glass ampules ensuring CFA of identical specific activity.\nas §1, with “Thermal Sensitivity Testing: Prior to testing, animals were allowed to habituate to the testing room for 1 hour on each day. Animals were” for “Hargreaves Assay. Animals were”, “maneuvered (Ugo Basile) underneath the” for “maneuvered (Ugo Baseline) underneath the”"}, "rats": {"test_system": "rats", "test": "Incisional post-operative pain model, thermal sensitivity", "type": "in vivo, rat", "conditions": "for tau (τ), rate of recovery following incision: exponential decay fit, time in days", "method": "Incisional post-operative pain model: To model post-operative pain, an established rat incisional model was used. In short, male and female rats were randomized into either experimental or control groups. On the day of surgery, the animals were anesthetized and placed into a prone position. Once the animal was under a surgical plane of anesthesia, a 200 μL intraplantar injection of 100 μM (31.54 μg total) lipidated peptidomimetic was made into the ipsilateral hind paw. Afterwards, the animals were returned to their home cage and allowed to recover. On the same day, 6 hours after the pre-injection, the animals were anaesthetized, placed into a prone position, and prepared for incision injury. The ipsilateral hind paw was sterilized using successive swabs of chlorohexidine, 70% ethanol, and iodine. Then, using a size 10 scalpel, a 1 cm long incision was made into the plantar surface of the ipsilateral hind paw. Short, yet firm, strokes were used to make incisions through the skin, fascia, and muscle of the hind paw. Following incision, two 50 μL injections, containing 100 μM (7.885 μg per injection) of the lipidated peptidomimetic, were made into each “half” of the incised plantar muscle. Following injection into the muscle, the skin was sutured using 6/0 silk sutures (Ethicon) in a continuous manner to discourage removal of sutures. Upon conclusion of suturing, four 25 μL injections containing 100 μM (3.9425 μg per injection) of the lipidated peptidomimetic, were made into a “quadrant” adjacent to the incision. Finally, the animals were returned to their home cage and allowed to recover for at least 16 hours.\nas §1, with “Thermal Sensitivity Testing: Prior to testing, animals were allowed to habituate to the testing room for 1 hour on each day. Animals were” for “Hargreaves Assay. Animals were”, “maneuvered (Ugo Basile) underneath the” for “maneuvered (Ugo Baseline) underneath the”"}, "C57BL/6 mice [2]": {"test_system": "C57BL/6 mice", "test": "Formalin acute inflammatory pain assay", "type": "in vivo, mouse", "method": "(§2) Formalin Assay. Male and female C57BL/6 mice were randomly assigned to either control or experimental groups. Animals were habituated to the formalin testing chamber for 30 minutes or until exploratory behavior ceased the day of experimentation. Following the habituation period, animals were removed from the chamber and given an intraplantar injection of 5% formalin into the ipsilateral hind paw, then immediately placed back into the testing chamber and recorded. Animals were recorded for at least 90 minutes after formalin injection using Active WebCam software. Videos were subsequently scored for number of paw licks, number of paw lifts, and number of full body flinches. All behaviors were scored for a full minute, every five minutes, for 90 minutes of video recording.\nas §2, with “Assay:” for “Assay.”, “Animals were habituated to the formalin testing chamber for 30 minutes or until exploratory behavior ceased the day of experimentation.” left out, “All behaviors were scored for a full minute, every five minutes, for 90 minutes of video recording.” left out"}, "[3]": {"conditions": "single i.pl. peptide injection (100 μM, 20 μL) 24 h after CFA, n=8"}, "[4]": {"conditions": "peptide 100 μM 6 h before and immediately after plantar incision"}}, "note": "Ends that are not written are not given here. Peptide text beside a SMILES is read from it. * marks the point of attachment. Myristoyl = CCCCCCCCCCCCCC(=O)*", "data": [{"compound": "CCCCCCCCCCCCCC(=O)N[C@@H](CCCNC(=N)N)C(=O)N[C@@H](CCSC)C(=O)N[C@@H](CO)C(=O)N[C@@H](CCC(=O)O)C(=O)N[C@H](C(=O)N[C@@H](CCCCN)C(=O)N[C@@H](CCCNC(=N)N)C(=O)N[C@@H](CC(C)C)C(=O)N[C@@H](CC(C)C)C(=O)N[C@@H](CO)C(=O)N[C@@H](CCC(=O)O)C(=O)O)[C@@H](C)CC", "note": "[AP2 inhibitor peptide, RMSEIKRLLSE (SEQ ID NO: 1)] (Myristoyl-RMSEIKRLLSE-OH; N-terminus and C-terminus assumed)", "values": [{"measurement": "granuloma-like clustering of immune cells", "setting": "rat hind paws; 24 hours following incision, n=2", "result": "dense clustering of immune cells"}, {"measurement": "changes in gait", "setting": "rat hind paws; after injection of the peptide", "result": "did not potentiate any observable changes"}, {"measurement": "Kd", "setting": "AP2 complex", "result": 650, "unit": "nM"}]}, {"compound": "IERLSEMSLRK (SEQ ID NO: 6) [scrambled peptide]", "values": [{"measurement": "paw withdrawal latency day-1", "setting": "C57BL/6 mice [1]; 24 h after CFA, before the single i.pl. peptide injection, n=8", "result": "2.4 ± 0.3", "unit": "s"}, {"measurement": "tau (τ), time constant of thermal sensitivity recovery", "setting": "C57BL/6 mice [1]; all animals, first order exponential decay fit", "result": 4.82}, {"measurement": "tau (τ), time constant of thermal sensitivity recovery", "setting": "C57BL/6 mice [1]; female mice, exponential decay fit", "result": 3.23}, {"measurement": "tau (τ), time constant of thermal sensitivity recovery", "setting": "C57BL/6 mice [1]; male mice, exponential decay fit", "result": 6.45}, {"measurement": "paw withdrawal latency day-2", "setting": "C57BL/6 mice [1]; [3]", "result": "3.8 ± 0.5", "unit": "s"}, {"measurement": "paw withdrawal latency day-3", "setting": "C57BL/6 mice [1]; [3]", "result": "3.8 ± 0.4", "unit": "s"}, {"measurement": "paw withdrawal latency day-5", "setting": "C57BL/6 mice [1]; [3]", "result": "5.5 ± 0.6", "unit": "s"}, {"measurement": "paw withdrawal latency day-9", "setting": "C57BL/6 mice [1]; [3]", "result": "7.0 ± 0.8", "unit": "s"}, {"measurement": "tau (τ), rate of recovery following incision", "setting": "rats; all rats", "result": 9.09}, {"measurement": "tau (τ), rate of recovery following incision", "setting": "rats; female rats", "result": 11.72}, {"measurement": "tau (τ), rate of recovery following incision", "setting": "rats; male rats", "result": 7.46}, {"measurement": "paw withdrawal latency day-1", "setting": "rats; [4]", "result": "5.7 ± 0.4", "unit": "s"}, {"measurement": "paw withdrawal latency day-2", "setting": "rats; [4]", "result": "6.4 ± 0.4", "unit": "s"}, {"measurement": "paw withdrawal latency day-3", "setting": "rats; [4]", "result": "7.4 ± 0.5", "unit": "s"}, {"measurement": "paw withdrawal latency day-4", "setting": "rats; [4]", "result": "7.4 ± 0.5", "unit": "s"}, {"measurement": "paw withdrawal latency day-5", "setting": "rats; [4]", "result": "8.3 ± 0.6", "unit": "s"}, {"measurement": "paw withdrawal latency day-6", "setting": "rats; [4]", "result": "8.6 ± 0.5", "unit": "s"}, {"measurement": "paw withdrawal latency day-7", "setting": "rats; [4]", "result": "11.7 ± 0.6", "unit": "s"}, {"measurement": "paw withdrawal latency day-8", "setting": "rats; [4]", "result": "11.4 ± 0.4", "unit": "s"}, {"measurement": "paw withdrawal latency day-9", "setting": "rats; [4]", "result": "12.0 ± 0.6", "unit": "s"}, {"measurement": "cumulative phase 2 paw licking behavior", "setting": "C57BL/6 mice [2]; single i.pl. peptide injection (100 μM, 20 μL) 24 h before 5% formalin, n=6", "result": "184±22"}]}, {"compound": "RASDKQTLLPNQ (SEQ ID NO: 5) (also: phosphorylated, site not given here) [P4, di-leucine based peptide, parent protein CD3, phosphorylated]", "values": [{"measurement": "nocifensive (licking and lifting) behaviors", "setting": "C57BL/6 mice [2]; di-leucine peptide analogs, 5% formalin, n=3 per analog", "result": "significant decreases"}]}]}
